# Source: paper PMC11160895 (Research Square, 2024)
# Tests used:
# [1] = system: T cells expressing TCR4; experiment: T cell degranulation CD107a, TCR4-transduced T cells co-cultured with HLA-A3+ antigen presenting cells; settings: peptide concentrations as high as 10 μM
# Experimental: The peptide specificity of TCR-transduced T cells was assessed by intracellular cytokine staining (ICS) using the BD Cytofix/CytoPerm Plus Kit, following manufacturer’s instructions. Cos-7 cells were electroporated with 100 μg/mL of HLA-A*03:01 mRNA and plated into 96-well round-bottom plates overnight. […] Cells were washed with 1x PBS to remove any unbound peptide. […] Cells were washed with 1×PBS and then fixed and permeabilized for 15 minutes at 4 °C. […] All antibodies were used at a final concentration of 5 μg/mL. Finally, cells were washed with perm-wash buffer, suspended in 2% FBS in PBS and acquired on an X20 LSR Fortessa flow cytometer with the BD FACSDiva software.
# [2] = biological target: T1, HLA-A3 (Homo sapiens, UniProt P04439); experiment: Peptide dissociation from HLA-A3 by fluorescence anisotropy; settings: 100 nM labeled complex + 100 μM unlabeled peptide, pH 7.4
# Experimental: (§1) Anticipating lengthy NMR data collection times, we first verified the stability of the peptide/HLA-A3 complexes.
# Fluorescence anisotropy measurements for peptide dissociation were performed as previously described ([15]). […] Changes in anisotropy were recorded as a function of time.
# [3] = system: TCR4; experiment: SPR binding of TCR4 to peptide/HLA-A3 complexes, 4 °C; settings: HBS-EP pH 7.4, gp100 presented by HLA-A2 as irrelevant negative control
# Experimental: To help ensure the stability of the samples, we also performed the experiments at the reduced temperature of 4 °C.
# Affinities and binding kinetics were measured via surface plasmon resonance using a Biacore T200 instrument. […] The s3–4 scTv was employed as a positive control and the irrelevant Tax11–19/HLA-A*02:01 or gp100/HLA-A*02:01 complexes as a negative control. […] Experiments were performed at either 4 °C or 25 °C as indicated with a blank activated and deactivated flow cell as reference. Binding affinities were determined by fitting the curve of the reference-subtracted steady-state responses against the injected protein concentrations to a 1:1 binding model in OriginPro 2024. For measurements of dissociation rates, experiments were performed at 4 °C. TCRs or the s3–4 scTV were immobilized to approximately 300 RU on a CM5 Series S sensor chip with peptide/MHC complexes injected at a flow rate of 100 μL/min. The dissociation rate (koff) of a TCR-pMHC binding was determined by fitting the dissociation phase of the sensorgram to a single exponential decay function in OriginPro 2024. The association rate (kon) was calculated from the ratio of measured koff and the separately measured KD at 4 °C using kon=koff/KD.
# [4] = system: neoantigen-specific TCRs; settings: cited from earlier work
# Text: The slight change in the position of the side chain in the complex with TCR3 distorts the geometry of this interaction, although the side chain is still embedded in a complex electrostatic environment with structur ...
# [5] = biological target: T1, HLA-A3; settings: fluorescence anisotropy, position 5 5-carboxyfluorescein-lysine peptide, 100 nM complex + 100 μM unlabeled peptide, 20 mM NaH2PO4, 75 mM NaCl, pH 7.4; cited from earlier work
# Text: as §1
# [6] = biological target: T1, HLA-A3; experiment: 19F NMR of 5F-Trp6 peptides bound to HLA-A3; design: the extracellular domain of the MHC heavy chain, β2-microglobulin, TCR α and β chains, and the s3–4 scTv were overexpressed in E coli; made in house
# Experimental: ^19F NMR spectra were recorded using Bruker 600 MHz NMR instrument with a QCI cryogenic probe at NMRFAM, University of Wisconsin-Madison. […] To obtain similar sensitivities on the two samples at different concentrations, the total acquisition times of the 1D experiments in Figs. 7A–F in were set to approximately 12 hours and 33 hours, accordingly. The spectra were acquired in 4-hour blocks interleaved with proton 1D recordings to verify sample stability. For the data in Extended Data Figs. 6D,E total acquisition times were 20 minutes for both complexes. Probe temperature was maintained at a calibrated value of 5.2 °C. Once all blocks were recorded, they were checked individually for frequency drift, which was not detected, and combined to obtain combined datasets with improved signal/noise ratio. The reference frequency of the ^19F channel was set through internal routines of the Topspin acquisition software after the NMR spectrometer was locked on D2O. […] To improve the signal/noise ratio, we compared recording of ^19F 1D spectra with and without proton decoupling. […] We also optimized a recycle delay for the fluorine 1D experiment and determined that 1 s was the optimal time. Therefore, D1 of 0.4 s was used with AQ of 0.59 s. Line shape deconvolution was performed using Mestrelab MNova NMR. Free induction decays were processed with an exponential window function, Fourier- transformed, and baseline corrected prior to fitting with Lorentzian line shapes. CEST experiments were performed by applying 10–40 μW irradiation on a proton channel at a desired ppm position for 0.4 s. The total acquisition time for each CEST dataset was 2 hours. The bandwidth of the saturation pulse was directly measured on a free peptide sample by varying the saturation ppm position around the sharp peptide peak. The direct effect of the pre-saturation pulse was found detectable within +/− 0.5 ppm from the irradiation position. Exchange Spectroscopy (EXSY) experiments were performed with 50 ms mixing time. […] Data were collected in four six-hour blocks that were combined for processing.
# T1 sequence (P04439 25-308 limits assumed): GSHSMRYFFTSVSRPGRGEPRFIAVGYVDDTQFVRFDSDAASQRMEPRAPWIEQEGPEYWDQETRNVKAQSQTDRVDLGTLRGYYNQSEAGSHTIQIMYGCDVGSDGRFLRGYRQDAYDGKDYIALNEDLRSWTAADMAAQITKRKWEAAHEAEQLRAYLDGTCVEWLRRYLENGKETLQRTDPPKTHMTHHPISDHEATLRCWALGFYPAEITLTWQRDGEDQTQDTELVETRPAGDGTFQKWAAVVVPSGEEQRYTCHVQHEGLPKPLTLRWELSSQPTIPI
# T1 sequence (P61769 21-119 partner): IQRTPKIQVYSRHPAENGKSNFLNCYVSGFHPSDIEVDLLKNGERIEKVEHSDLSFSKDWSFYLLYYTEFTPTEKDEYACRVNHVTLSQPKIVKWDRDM
sequence,measurement,setting,value
"AHHGGWTTK [WT peptide, wild-type PIK3CA counterpart peptide presented by HLA-A3]",T cell stimulation (CD107a),[1],no stimulation was evident
same,stability of peptide/HLA-A3 complex at 25 °C,[2],markedly less stable
same,binding to TCR4 (detection),[3],No binding was detectable
same,recognition by multiple neoantigen-specific TCRs,[4],unable to recognize the WT peptide/HLA-A3 complex
same,stability of peptide/HLA-A3 complex at 37 °C,[5],markedly less stable
same,number of 19F peaks of the complex by line shape fitting,"[6]; 5F-Trp6 peptide/HLA-A3 complex, 5 °C",at least eight
same,conformational exchange (CEST),"[6]; 5F-Trp6 peptide/HLA-A3 complex, 5 °C, EXSY consistent",all the peaks were in exchange except for the peak at −125.12 ppm
same,stability of complex on storage (19F NMR),"[6]; approximately 11 months at 4 °C, 5F-Trp6 peptide/HLA-A3",significant increase in the resonance at −125.12 ppm
